Data taken from patent publication US20120157532A1, “Method Of Treating Or Preventing A Convulsive Disorder In A Patient In Need Thereof” (priority 2009, published 2012).

Assays:
[1] = test system: Wistar rats Rj Wi IOPS Han; experiment: Photopic electroretinogram (ERG) in VGB-treated rats; format: in vivo, rat; settings: for photopic ERG amplitude versus control group: p<0.001/p<0.01
Protocol: (§1) Animal treatments: As described previously (Duboc et al., 2004), Wistar rats Rj Wi IOPS Han were purchased from Janvier (Le Genest-St-lsle, France) at between six and seven weeks of age. VGB dissolved in 0.9% NaCl was administered at 40 mg (125 mg/ml, 0.32 ml) to rats by daily intraperitoneal injection for 65 days. These daily doses (rats: 200 mg/kg) are in-line with those described for the treatment of epilepsy in animals (Andre et al., 2001) or in humans (adult patients: […]; children: 50-75 mg/kg; or infants: 100-150 mg/kg) (Aicardi et al., 1996; Chiron et al., 1997; Lux et al., 2004). Light intensity in the animal cages ranged between 125 and 130 lux.
Electroretinogram (ERG): Photopic ERGs were recorded after the last VGB injection, as described previously (Duboc et al., 2004). Anesthesia was induced by intraperitoneal injection (0.8 to 1.2 ml/kg) of a solution containing ketamine (40 mg/ml) and xylazine (4 mg/ml Rompum). Animals were light-adapted for 10 minutes with a background light of 25 cdm^−2. Light flashes were then applied on this background light; the light intensity of the flash was 25 cdsm^−2. Ten recordings were averaged with an interstimulus interval of 30 s.
Statistical analysis: Statistical analysis of the results was performed by a one-way analysis of variance with the Student-Newman Keuls test (Sigmastat) for all measurements.

[2] = test system: Wistar rats Rj Wi IOPS Han; experiment: Histology: lengths of disorganised retinal areas (DAPI nuclear staining); format: in vivo, rat; settings: evening versus morning injection, 65 days; p<0.05
Protocol: as §1
Histology: Eye cups were fixed overnight at 4° C. in 4 % (wt/vol) paraformaldehyde in phosphate buffered saline (PBS; 0.01 M, pH 7.4). The tissue was cryoprotected in successive solutions of PBS containing 10%, 20% and 30% sucrose at 4° C., oriented along the dorso-ventral axis and embedded in OCT (Labonord, Villeneuve d'Ascq, France). […]
(§2) For quantification, vertical sections along the dorso-ventral axis were selected at the optic nerve. Following DAPI nuclear staining, the lengths of disorganised retinal areas were measured; GFAP immunostaining was used for detection and quantificationof retinal areas with reactive gliosis. […]

[3] = test system: Wistar rats Rj Wi IOPS Han; experiment: Histology: retinal gliosis by GFAP immunolabelling; format: in vivo, rat; settings: 65 days
Protocol: as §1
Histology: Eye cups were fixed overnight at 4° C. in 4 % (wt/vol) paraformaldehyde in phosphate buffered saline (PBS; 0.01 M, pH 7.4). The tissue was cryoprotected in successive solutions of PBS containing 10%, 20% and 30% sucrose at 4° C., oriented along the dorso-ventral axis and embedded in OCT (Labonord, Villeneuve d'Ascq, France). Retinal sections (8-10 μm thickness) were permeabilised for five minutes in PBS containing 0.1% Triton X-100 (Sigma, St. Louis, Mo.), rinsed, and incubated in PBS containing 1% bovine serum albumin (Eurobio, Les-Ulis, France), 0.1% Tween 20 (Sigma), and 0.1% sodium azide (Merck, Fontenay-Sous-Bois, France) for two hours at room temperature. The primary antibody added to the solution was incubated for two hours at room temperature. Polyclonal antibodies were directed against rabbit GFAP (1/400, Dako, USA). Sections were rinsed and then incubated with the secondary antibody, goat anti-rabbit IgG conjugated to Alexa TM488 (1:500, Molecular Probes, Eugene, Oreg.) for two hours. The dye, diamidiphenyl-indole (DAPI), was added during the final incubation period. […]
as §2

[4] = patients, oral administration; cited from earlier work
[5] = test system: visual field; settings: patients; cited from earlier work
[6] = biological target: GABA transaminase (Homo sapiens, UniProt P80404); settings: cited from earlier work
Sequence of GABA transaminase (P80404 29-500, species assumed): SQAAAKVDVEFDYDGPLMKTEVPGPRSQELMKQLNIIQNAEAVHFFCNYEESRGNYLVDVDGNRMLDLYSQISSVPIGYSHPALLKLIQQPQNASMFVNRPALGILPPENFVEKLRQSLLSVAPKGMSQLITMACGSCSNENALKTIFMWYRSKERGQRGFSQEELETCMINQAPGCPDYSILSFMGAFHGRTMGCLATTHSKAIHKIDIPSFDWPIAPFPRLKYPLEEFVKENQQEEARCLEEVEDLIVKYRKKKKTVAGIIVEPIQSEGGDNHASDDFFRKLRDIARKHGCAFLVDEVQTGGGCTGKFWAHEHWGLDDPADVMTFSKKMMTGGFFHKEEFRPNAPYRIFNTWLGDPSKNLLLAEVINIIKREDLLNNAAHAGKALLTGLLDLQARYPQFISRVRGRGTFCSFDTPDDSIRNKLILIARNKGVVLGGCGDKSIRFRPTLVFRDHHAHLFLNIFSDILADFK

photopic ERG amplitude versus control group ([1]; VGB AM: 40 mg daily i.p. for 65 days at the beginning of the light cycle): lower ERG amplitude | photopic ERG amplitude versus control group ([1]; VGB PM: 40 mg daily i.p. for 65 days at the end of the light cycle): lower ERG amplitude | ERG amplitude decrease, VGB PM versus VGB AM ([1]; injected at the end versus the beginning of the light cycle, 65 days, p<0.005): less important | disorganised retinal areas (outer nuclear layer), VGB PM versus VGB AM [2]: smaller disorganised retinal areas | GFAP staining in the outer retina versus control animals ([3]; VGB AM: morning injection): intense staining in the outer retina | GFAP staining in the outer retina versus control animals ([3]; VGB PM: evening injection): intense staining in the outer retina | distribution of GFAP-positive areas, VGB PM versus VGB AM ([3]; evening versus morning injection, p<0.05): less widely distributed
SMILES: C=CC(N)CCC(=O)O (centres unmarked) [VGB, 4-amino-5-hexenoic acid]
time for plasma VGB concentration to decrease to half of the peak concentration [4]: within six to eight hours | time to peak plasma VGB concentration [4]: within an hour | effect on visual field [5]: irreversible constriction of the visual field | duration of irreversible inhibition of the GABA transaminase [6]: lasts for few days
